Assay results reported in patent publication US9211310B2, “Use of a Chinese medicine composition in preparing medicaments for treating secondary prevention of myocardial infarction” (TASLY PHARMACEUTICAL GROUP CO., LTD, priority 2010, dated 2015).

Tested on: patients after acute myocardial infarction
Experiment: Life quality, Seattle Angina Questionnaire (SAQ), same clinical trial
Type: in vivo, human
Description: 3508 patients who were in accordance with the diagnostic standards of AMI for 28 days to 2 years and differentiated as Qi deficiency and blood stagnation syndrome by TCM were studied. 0.5 g Chinese medicine composition prepared by the method of EXAMPLE 1 (Coded as QSYQ) was administrated half an hour after meal, 3 times per day.
There were 19 questions in the Seattle angina questionnaire (SAQ), including 5 parts: physical limitation (PL), anginal stability (AS), anginal frequency (AF), treatment satisfaction (TS) and disease perception (DP). After being given necessary explanation by doctors, the questions were answered independently by patients.
They included the overall survival time, angina pectoris score, TCM symptom score and life quality score, where angina pectoris score, TCM symptom score and life quality score were evaluated at randomization, in 1st, 3rd, 6th, 9th, 12th month after treatment and 18th month after follow-up.
All evaluation results of SAQ were described during the period of observation, and Wilcoxon rank sum test was used for inter-group comparison.
The evaluation results in the SAQ were depicted in different observations, and inter-group comparison was tested by Wilcoxon Rank-sum test.

In the case of `CC(=O)Oc1ccccc1C(=O)O` [Control group, aspirine], the “SAQ Question 1-3: Slightly limited, percent of patients” value (6 months after treatment, PP) is reported as “(15.66%)”, the “SAQ Question 1-4: Mildly limited, number of patients” value (6 months after treatment, PP) is reported as 266 and the “SAQ Question 1-4: Mildly limited, percent of patients” value (6 months after treatment, PP) is reported as “(18.37%)”. For the same compound, the “SAQ Question 1-4: Moderately limited, number of patients” value (6 months after treatment, PP) was 74, the “SAQ Question 1-4: Moderately limited, percent of patients” value (6 months after treatment, PP) was “(5.11%)” and the “SAQ Question 1-4: Not limited, number of patients” value (6 months after treatment, PP) was 613. For the same compound, the “SAQ Question 1-4: Not limited, percent of patients” value (6 months after treatment, PP) was “(42.33%)”, the “SAQ Question 1-4: Other reasons, number of patients” value (6 months after treatment, PP) was 12 and the “SAQ Question 1-4: Other reasons, percent of patients” value (6 months after treatment, PP) was “(0.83%)”. For the same compound, the “SAQ Question 1-4: Severely limited, number of patients” value (6 months after treatment, PP) was 20, the “SAQ Question 1-4: Severely limited, percent of patients” value (6 months after treatment, PP) was “(1.38%)” and the “SAQ Question 1-4: Slightly limited, number of patients” value (6 months after treatment, PP) was 463. The “SAQ Question 1-4: Slightly limited, percent of patients” value (6 months after treatment, PP) was “(31.98%)”, the “SAQ Question 1-5: Mildly limited, number of patients” value (6 months after treatment, PP) was 244 and the “SAQ Question 1-5: Mildly limited, percent of patients” value (6 months after treatment, PP) was “(16.86%)”. The “SAQ Question 1-5: Moderately limited, number of patients” value (6 months after treatment, PP) was 109, the “SAQ Question 1-5: Moderately limited, percent of patients” value (6 months after treatment, PP) was “(7.53%)” and the “SAQ Question 1-5: Not limited, number of patients” value (6 months after treatment, PP) was 637. For the same compound, the “SAQ Question 1-5: Not limited, percent of patients” value (6 months after treatment, PP) was “(44.02%)”, the “SAQ Question 1-5: Other reasons, number of patients” value (6 months after treatment, PP) was 12 and the “SAQ Question 1-5: Other reasons, percent of patients” value (6 months after treatment, PP) was “(0.83%)”. The “SAQ Question 1-5: Severely limited, number of patients” value (6 months after treatment, PP) was 12, the “SAQ Question 1-5: Severely limited, percent of patients” value (6 months after treatment, PP) was “(0.83%)” and the “SAQ Question 1-5: Slightly limited, number of patients” value (6 months after treatment, PP) was 433. The “SAQ Question 1-5: Slightly limited, percent of patients” value (6 months after treatment, PP) was “(29.92%)”, the “SAQ Question 1-9: Mildly limited, % of cases” value (6 months after treatment, PP) was “(20.47%)” and the “SAQ Question 1-9: Mildly limited, cases” value (6 months after treatment, PP) was 289. For the same compound, the “SAQ Question 1-9: Moderately limited, % of cases” value (6 months after treatment, PP) was “(21.60%)”, the “SAQ Question 1-9: Moderately limited, cases” value (6 months after treatment, PP) was 305 and the “SAQ Question 1-9: Not limited, % of cases” value (6 months after treatment, PP) was “(3.54%)”. For the same compound, the “SAQ Question 1-9: Not limited, cases” value (6 months after treatment, PP) was 50, the “SAQ Question 1-9: Other limited, % of cases” value (6 months after treatment, PP) was “(6.37%)” and the “SAQ Question 1-9: Other limited, cases” value (6 months after treatment, PP) was 90. The “SAQ Question 1-9: Severely limited, % of cases” value (6 months after treatment, PP) was “(34.70%)”, the “SAQ Question 1-9: Severely limited, cases” value (6 months after treatment, PP) was 490 and the “SAQ Question 1-9: Slightly limited, % of cases” value (6 months after treatment, PP) was “(13.31%)”. The “SAQ Question 1-9: Slightly limited, cases” value (6 months after treatment, PP) was 188, the “SAQ 2nd question: 6, % of cases” value (9 months after treatment, FAS) was “(0.00%)” and the “SAQ 2nd question: 6, cases” value (9 months after treatment, FAS) was 0. The “SAQ 2nd question: Clearly increased, % of cases” value (9 months after treatment, FAS) was “(1.44%)”, the “SAQ 2nd question: Clearly increased, cases” value (9 months after treatment, FAS) was 25 and the “SAQ 2nd question: Clearly reduced, % of cases” value (9 months after treatment, FAS) was “(24.17%)”. The “SAQ 2nd question: Clearly reduced, cases” value (9 months after treatment, FAS) was 421, the “SAQ 2nd question: Same, % of cases” value (9 months after treatment, FAS) was “(35.94%)” and the “SAQ 2nd question: Same, cases” value (9 months after treatment, FAS) was 626. The “SAQ 2nd question: Slightly increased, % of cases” value (9 months after treatment, FAS) was “(3.96%)”, the “SAQ 2nd question: Slightly increased, cases” value (9 months after treatment, FAS) was 69 and the “SAQ 2nd question: Slightly reduced, % of cases” value (9 months after treatment, FAS) was “(34.50%)”. The “SAQ 2nd question: Slightly reduced, cases” value (9 months after treatment, FAS) was 601, the “SAQ 3rd question: 1-2 times per week, % of cases” value (9 months after treatment, FAS) was “(34.50%)” and the “SAQ 3rd question: 1-2 times per week, cases” value (9 months after treatment, FAS) was 601. The “SAQ 3rd question: 1-3 times per day, % of cases” value (9 months after treatment, FAS) was “(3.96%)”, the “SAQ 3rd question: 1-3 times per day, cases” value (9 months after treatment, FAS) was 69 and the “SAQ 3rd question: <1 time per week, % of cases” value (9 months after treatment, FAS) was “(24.17%)”. The “SAQ 3rd question: <1 time per week, cases” value (9 months after treatment, FAS) was 421, the “SAQ 3rd question: No onset, % of cases” value (9 months after treatment, FAS) was “(0.00%)” and the “SAQ 3rd question: No onset, cases” value (9 months after treatment, FAS) was 0. The “SAQ 3rd question: ≧3 times per week, % of cases” value (9 months after treatment, FAS) was “(35.94%)”, the “SAQ 3rd question: ≧3 times per week, cases” value (9 months after treatment, FAS) was 626 and the “SAQ 3rd question: ≧4 times per day, % of cases” value (9 months after treatment, FAS) was “(1.44%)”. For the same compound, the “SAQ 3rd question: ≧4 times per day, cases” value (9 months after treatment, FAS) was 25, the “SAQ Question 1-3: Mildly limited, number of patients” value (9 months after treatment, FAS) was 58 and the “SAQ Question 1-3: Mildly limited, percent of patients” value (9 months after treatment, FAS) was “(3.33%)”. The “SAQ Question 1-3: Moderately limited, number of patients” value (9 months after treatment, FAS) was 17, the “SAQ Question 1-3: Moderately limited, percent of patients” value (9 months after treatment, FAS) was “(0.97%)” and the “SAQ Question 1-3: Not limited, number of patients” value (9 months after treatment, FAS) was 1421. For the same compound, the “SAQ Question 1-3: Not limited, percent of patients” value (9 months after treatment, FAS) was “(81.48%)”, the “SAQ Question 1-3: Other reasons, number of patients” value (9 months after treatment, FAS) was 8 and the “SAQ Question 1-3: Other reasons, percent of patients” value (9 months after treatment, FAS) was “(0.46%)”. For the same compound, the “SAQ Question 1-3: Severely limited, number of patients” value (9 months after treatment, FAS) was 2, the “SAQ Question 1-3: Severely limited, percent of patients” value (9 months after treatment, FAS) was “(0.11%)” and the “SAQ Question 1-3: Slightly limited, number of patients” value (9 months after treatment, FAS) was 238. The “SAQ Question 1-3: Slightly limited, percent of patients” value (9 months after treatment, FAS) was “(13.65%)”, the “SAQ Question 1-4: Mildly limited, number of patients” value (9 months after treatment, FAS) was 264 and the “SAQ Question 1-4: Mildly limited, percent of patients” value (9 months after treatment, FAS) was “(15.14%)”. The “SAQ Question 1-4: Moderately limited, number of patients” value (9 months after treatment, FAS) was 85 and the “SAQ Question 1-4: Moderately limited, percent of patients” value (9 months after treatment, FAS) was “(4.87%)”.
